One data set relates to HIV-1 (IIIB). Put plainly: Anti-HIV activity in MT-4 cells, tetrazolium viability, HIV-1. Type of data set: cell-based. The following applies: Human immunodeficiency virus 1, MT4, 120 h, 5 d, read-out: av IC50. An excerpt:
(§1) Anti-HIV activity and cytoxicity measurements in MT-4 cells were based on viability of cells that had been infected or not infected with HIV-1 (IIIB) and HIV-2 (ROD) ×4 strainsexposed to various concentrations of the test compound [following the procedure of S. Harada et al., Science, 1985, 229, 563]. The MT-4 cells were allowed to proliferate for 5 d after which time the number of viable cells was quantified by a tetrazolium-based colorimetric method [described by R. Pauwels et al., Journal of Virology Methods, 1988, 20, 309.]

In another data set the test system is MT-4 cells. Put plainly: Cytotoxicity in MT-4 cells, tetrazolium viability. Type of data set: cell-based. Conditions: 5 d, printed in HIV-2 line, read-out: av CC50.
Excerpt: as §1

Data set [1] can be described thus: Cytotoxicity in MT-4 cells, tetrazolium viability. Type of data set: cell-based. The following applies: human, printed in HIV-1 line, read-out: av CC50.
Excerpt: as §1

A further data set addresses CXCR4 chemokine receptor (Homo sapiens, UniProt P61073). Put plainly: Competition with CXCR4 binding antibodies, flow cytometry. The following applies: competition with anti-human CXCR4 mAb (44708.111), serial dilutions of compound added simultaneously with antibody. The protocol: (§2) The antibodies used in this study were: unconjugated mouse anti-human CXCR4 mAbs clones 44708.111, 44716.111, PE-conjugated clone 44717.111 and 12G5 (R&D Systems Europe, Abingdon, UK). Cells were preincubated with 20 μM of the compound for 30 mins. Thereafter cells were incubated with each of the mAbs for a further 60 mins. In the case of the direct binding assay, serial dilutions of the compound were added simultaneously with the antibody (44708.111). Cells were then incubated with a secondary fluorescein isothiocyanate-conjugated anti-mouse antibody (IgG-FITC) (Serotec, UK) for 30 mins. Cell samples were analysed by a FACScan flow cytometer (BD Biosciences Europe. Erembodegem, Belgium). Data were acquired and analysed with CellQuest software (Becton Dickinson) on an Apple Macintosh computer. Relative percentage inhibitions were calculated from the mean fluorescent intensity of the whole cell population and relative inhibitory concentration (IC) values were obtained by non linear regression analyses using the Graphpad prism software.
On the technique in general: In flow cytometry, cells or beads pass a laser one at a time.

A further data set concerns HIV-2 (ROD). Put plainly: Anti-HIV activity in MT-4 cells, tetrazolium viability, HIV-2. Type of data set: cell-based. The following applies: Human immunodeficiency virus 2, MT4, 120 h, 5 d, read-out: av IC50.
Excerpt: as §1

The next data set deals with T1, CXCR4 receptor (Homo sapiens, UniProt P61073).
T1 construct: endogenous in cells; host or cells: Jurkat cells
T1 sequence (P61073 whole entry): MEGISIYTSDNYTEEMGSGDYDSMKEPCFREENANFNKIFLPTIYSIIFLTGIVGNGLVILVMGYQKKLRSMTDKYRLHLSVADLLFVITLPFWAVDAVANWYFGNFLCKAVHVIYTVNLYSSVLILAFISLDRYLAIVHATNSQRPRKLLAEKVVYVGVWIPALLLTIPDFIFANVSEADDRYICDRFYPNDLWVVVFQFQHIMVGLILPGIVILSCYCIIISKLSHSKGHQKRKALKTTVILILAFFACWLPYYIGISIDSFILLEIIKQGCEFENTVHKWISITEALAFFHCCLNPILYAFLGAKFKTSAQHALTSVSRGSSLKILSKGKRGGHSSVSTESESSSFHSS
Put plainly: Binding of rhodamine-tagged macrocycles to jurkat cells, flow cytometry. The following applies: FIG. 1 / FIG. 2. The protocol: Two monocyclam compounds were tagged with rhodamine and specific binding to the CXCR4 receptor was analysed by incubating with jurkat cells. Cell samples were analysed by flow cytometry as described in example 8, below.
as §2

The record followed here is US8034800B2, “Antiviral macrocycle derivatives and metal complexes, incorporating bridged macrocycles” (University of Hull, priority 2004, dated 2011).

For orientation: IC50 means the concentration at which inhibition is half-maximal. One may read the CC50 as the concentration that lowers cell viability or growth by half. Broadly, the IC90 is the point of the concentration-response curve where the effect stands at 90%.

Sequence of CXCR4 chemokine receptor (P61073 whole entry): as above

Regarding `c1cc(CN2CCCN3CCN(CCCNCC2)CC3)ccc1CN1CCCN2CCN(CCCNCC1)CC2` [Compound 16], the IC50 amounted to 6.98 µM in the data set on HIV-1 (IIIB), 17 µM on CXCR4 chemokine receptor and 23.2 µM in the data set on HIV-2 (ROD). Further, the CC50 in the data set with MT-4 cells was over 225 µM. The CC50 at 5 d in data set [1] is over 225 µM. Also, the IC90 on CXCR4 chemokine receptor is over 17 µM.
As for `CCN(CC)c1ccc2c(-c3ccc(NC(=S)Nc4ccc(CN5CCCN6CCN(CCCNCC5)CC6)cc4)cc3C(=O)O)c3ccc(=[N+](CC)CC)cc-3oc2c1` [Rhodamine-Bridged Macrocycle Conjugate], the “binding to the CXCR4 chemokine receptor (flow cytometry histogram)” value on CXCR4 receptor is reported as “binding of the chelator to the CXCR4 chemokine receptor”.
